From patent publication US9265747B2, “Platinum (IV) complexes for use in dual mode pharmaceutical therapy” (Massachusetts Institute of Technology, priority 2008, dated 2016)
Entries after “also recorded” stand apart in the source; their conditions may differ.

Experiments:
[1] = test system: NTera-2, human testicular cancer; assay: MTT assay, NTera-2 cells; assay type: cell-based
Method: (§1) Cell Line and Cell Culture. Healthy normal fibroblast GM61869, human cancer NTera-2, human cervical cancer HeLa, human osteosarcoma cell line U2OS were obtained from the ATCC. Cells were incubated at 37° C. in 5% CO2 and grown in DMEM medium supplemented with 10% fetal bovine serum and 1% penicillin/streptomycin. Cells were passed every 3 to 4 days and restarted from the frozen stock upon reaching pass number 20.
(§2) MTT Assay. Cytotoxic behavior of compound 1, DCA and cis-DDP were evaluated using the MTT assay. Solutions of the platinum complexes were freshly prepared in sterile PBS before use and quantitated by atomic absorption spectroscopy. Cells were seeded on a 96 well plate (1000 cells per well for NTera-2, U2OS, HeLa; 1400 per well for normal fibriblast; 500 per well for 7B, 10B, 175F and 150×2) in 100 μL DMEM media and incubated for 24 hours. The cells were then treated with compound 1, DCA or cis-DDP, separately at varying concentrations and incubated for 72 hours at 37° C. The cells were then treated with 20 μL of 3-(4,5-dimethylthiazol-2-yl)-2,5-diphenyltetrazolium bromide (MTT) (5 mg/mL in PBS) and incubated for 5 h. The medium was removed, the cells were lysed by adding 100 μl, of DMSO, and the absorbance of the purple formazan was recorded at 550 nm using a BioTek Synergy HT multi-detection microplate plate reader. Each well was performed in triplicate in three independent experiments for each cell line.

[2] = test system: HeLa, human cervical cancer; assay: MTT assay, HeLa cells; assay type: cell-based; settings: 72 hours
Method: as §1, §2

U2OS, human osteosarcoma = assay: MTT assay, U2OS cells; assay type: cell-based; settings: 72 hours
Method: as §1, §2

[3] = test system: A549, human lung carcinoma; assay: MTT assay, A549 cells; assay type: cell-based; settings: 72 hours
Method: [The procedure below names another cell line; the source lists this cell line under the same test.] as §2

[4] = test system: MCF-7, human breast adenocarcinoma; assay: MTT assay, MCF-7 cells; assay type: cell-based
Method: [The procedure below names another cell line; the source lists this cell line under the same test.] as §2

[5] = test system: MRC-5, normal lung fibroblast; assay: MTT assay, MRC-5 normal cells; assay type: cell-based, human
Method: as §2

[6] = test system: A2780, human ovarian carcinoma; assay: MTT assay, A2780 cells; assay type: cell-based; settings: A2780 cisplatin sensitive cells, 72 h
Method: (§3) A more negative membrane potential might promote translocation of the active, cationic form of cisplatin from the cytoplasm to mitochondria, thus diminishing platination of nuclear DNA. […] Thus, a pair of cisplatin sensitive A2780 and resistant A2780/CP70 ovarian cancer cells were studied (Table 1 and FIG. 10). […] (▴) with (A) cisplatin sensitive A2780 cells and (B) cisplatin resistant A2780/CP70 cells, after 72 h as determined by the MTT assay. The controls were cisplatin and c,c,t-[Pt(NH3)2Cl2(O2CCH3)2]. […] Results for the A2780/CP70 cells indicate that DCA plays a role, in this embodiment, in making cisplatin-resistant cells susceptible towards mitaplatin treatment.
as §2

[7] = test system: A2780/CP70, cisplatin-resistant human ovarian carcinoma; assay: MTT assay, A2780/CP70 cells; assay type: cell-based; settings: 72 h; for IC50: A2780/CP70 cisplatin resistant cells
Method: as §3, §2

[8] = Cyclic voltammetry, Pt(IV)/Pt(II) couple; assay type: physicochemical
Description: Materials and Measurements. The complexes cis-[Pt(NH3)2Cl2], and c, c, t-[Pt(NH3)2Cl2(OH)2] were synthesized as previously described. Distilled water was purified by passage through a Millipore Milli-Q Biocel water purification system (18.2 MΩ) with a 0.22 μm filter. For the detection of cisplatin 1,2-d(GpG) intrastrand adduct, a monoclonal adduct specific antibody R-C18 was used which was a gift from Anti-cytochrome c (Ab-1) sheep polyclonal antibody was procured from Calbiochem. For AIF detection, rabbit polyclonal IgG antibody was used from Santa Cruz Biotechnology, Inc. Alexa Fluor® 488 labeled secondary antibody donkey anti-(sheep IgG) was obtained from Invitrogen for cytochrome c detection. For AIF detection, Alexa Fluor® 546 labeled secondary antibody goat anti-(rabbit IgG) was purchased from Invitrogen. […] JC-1 (5,5′, 6,6′-tetrachloro-1,1′,3,3′ tetraethylbenzimidazolylcarbocyanine iodide) was obtained from Cayman Chemicals. ^1H NMR and ^195Pt NMR spectra were recorded on a Bruker AVANCE-400 NMR spectrometer with a Spectro Spin superconducting magnet in the Massachusetts Institute of Technology Department of Chemistry Instrumentation Facility (MIT DCIF). […] Fluorescence imaging studies were performed with an Axiovert 200M inverted epifluorescence microscope (Zeiss, Thornwood, N.Y.) equipped with an EM-CCD digital camera C9100 (Hamamatsu, Japan). […]

[9] = test system: human cancer NTera-2 cells; assay: JC-1 mitochondrial membrane potential assay, NTera-2 cells; assay type: cell-based; settings: 100 μM, 4 h and 48 h
Description: (§4) The following describes a mitochondrial membrane potential assay using compound 1. JC-1 Assay: Mitochondrial attack is associated with a drop in mitochondrial transmembrane potential (Δψm). For this reason Δψm, is an important parameter of mitochondrial function and has been used as an indicator for mitochondrial death. Variation in Δψm can be studied by evaluating the changes in fluorescence intensity of cells stained with lipophilic cationic dye, 5,5′,6,6′-tetrachloro-1,1′,3,3′-tetraethylbenzimidazolylcarbocyanine iodide (JC-1). It can selectively enter mitochondria and reversibly change color from green to red as the membrane potential increases.
(§5) The negative charge established by the mitochondrial membrane potential allows the lipophilic dye, bearing a delocalized positive charge, to enter the mitochondria where it accumulates. When the critical concentration is exceeded, J-aggregates form, which becomes red. In apoptotic cells, the mitochondrial membrane potential collapses, and the JC-1 can not accumulate within the mitochondria. In these cells, JC-1 remains in the cytoplasm in a green fluorescent monomeric form. Apoptotic cells, showing primarily green fluorescence, are easily differentiated from the healthy cells which show mainly red fluorescence.
(§6) JC-1 Assay. Normal and NTera-2 cells were cultured on cover slips to a density of 1×10^6 cells/mL and incubated overnight at 37° C. […]

[10] = test system: healthy normal fibroblast cells; assay: JC-1 mitochondrial membrane potential assay, normal fibroblasts; assay type: cell-based; settings: 100 μM, 4 h and 48 h
Description: as §4, §5, §6

NTera-2 cells [11] = assay: TMRM mitochondrial membrane potential assay, NTera-2 cells; assay type: cell-based, human; settings: listed as compound 1
Method: (§7) TMRM Assay. Analysis of mitochondrial membrane potential (Δψm) was carried out by using tetramethyl rhodamine methyl ester (TMRM). A similar procedure as mentioned above for the JC-1 assay was followed. Before fixing the cells, they were treated with 2 μM of TMRM for 30 min at 37° C.

[12] = test system: healthy normal fibroblast cells; assay: TMRM mitochondrial membrane potential assay, normal fibroblasts; assay type: cell-based; settings: listed as compound 1
Method: as §7

NTera-2 cells [13] = assay: Immunofluorescence detection of cytochrome c and AIF; assay type: cell-based, human; settings: treated NTera-2 cells
Method: Detection of cytochrome c and AIF. Normal fibroblast or Ntera-2 cells were seeded on microscope coverslips (1 cm) at a confluence of 1600 cells per slip and incubated overnight at 37° C. in DMEM. The medium was changed and compound 1 was added to a final 500 μM. The cells were incubated for 24 or 48 h at 37° C. Medium was then removed and the cells were incubated with fixing solution for 1 h at room temperature followed by three washes with phosphate buffered saline (PBS, pH 7.4). Cells were then fixed with 4% paraformaldehyde in 0.1 M phosphate buffer (pH 7.4) at room temperature for 1 h, washed twice with PBS. Cells were then permeabilize with 0.1% Triton-X100 in PBS for 30 min, followed by six washes with PBS. Cells were then rinsed with blocking buffer (PBS, 0.1% goat serum, 0.075% glycin). Cells were then incubated for 1 h at 37° C. with the anti-cytochrome c (anti-cytochrome c (Ab-1) Sheep pAb, Calbiochem) antibody or AIF (AIF (H-300), Santa Cruz Biotechnology Inc.) antibody both diluted 1:50 in blocking buffer, washed twice with blocking buffer and incubated at 37° C. with Alexa Fluor 488 donkey anti sheep IgG (Invitrogen) antibody for cytochrome c release and Alexa Fluor 546 goat anti-rabbit IgG (Invitrogen) antibody for AIF (dilution 1:50 in blocking buffer) for 1 h. […]

[14] = test system: normal fibroblasts and cancerous NTera-2 cells; assay: Co-culture of normal fibroblasts and cancerous NTera-2 cells; assay type: cell-based, human
Description: Cisplatin kills both NTera-2 and normal fibroblast cells

[15] = test system: human lung cancer A549 cells and normal human lung fibroblasts MRC-5; assay: LIVE/DEAD viability assay in co-culture; assay type: cell-based; settings: co-culture A549 and MRC-5, exposure for 24 h
Method: Studies were also conducted on a co-culture of human lung cancer A549 cells and normal human lung fibroblasts MRC-5. […] The assay allowed for the simultaneous determination of live and dead cells in a co-culture by labeling live cells with calcein AM dye, which fluoresces only when cleaved by intracellular esterase enzymes, and ethidium […] (EthD-1), which only enters dead cells with disrupted cell membranes. […] Following mitaplatin or cisplatin exposure for 24 h, cells were stained with calcein AM (green fluorescence) and ethidium homodimer-1 (red fluorescence) to differentiate between live and dead cells, respectively.

U2OS = assay: Annexin-V flow cytometry, U2OS cells; assay type: cell-based, human; settings: 10 and 20 μM, 72 h
Method: (§8) In order to quantify mitaplatin-induced apoptosis in cancer cells, an Annexin-V was performed and analyzed using flow cytometry. With this analysis, the percentage of apoptotic cells found was determined at 72 h after exposure of mitaplatin and cisplatin.

HeLa = assay: Annexin-V flow cytometry, HeLa cells; assay type: cell-based, human; settings: 10 and 20 μM, 72 h
Method: as §8

A549 = assay: Annexin-V flow cytometry, A549 cells; assay type: cell-based, human; settings: 10 and 20 μM, 72 h
Method: as §8

normal MRC-5 cells = assay: Annexin-V flow cytometry, normal MRC-5 cells; assay type: cell-based, human; settings: 72 h, cisplatin at 10 μM
Method: as §8

[16] = test system: NTera, HeLa, U2OS, A549, and MCF-7 cancer cells as well as MRC-5 normal fibroblasts; assay: MTT assay, control experiments in all cells; assay type: cell-based, human
Method: The ability of the compound 1 to promote cell death was determined using the MTT assay and the results were compared against those for cisplatin or -2 DCA using NTera, HeLa, U2OS, A549, and MCF-7 cancer cells as well as MRC-5 normal fibroblasts (FIG. 3). […] This enhanced potency of mitaplatin is consistent with the expected dual killing mechanism.
as §2

## O=C(O)C(Cl)Cl [DCA, Dichloroacetic acid]
[1]; Homo sapiens, NTERA2, 72 hours
  IC50: > 0.4 µM
[2]; Homo sapiens
  IC50: > 8 µM
U2OS, human osteosarcoma; Homo sapiens
  IC50: > 100 µM
[3]; Homo sapiens
  IC50: > 200 µM
[4]; Homo sapiens, MCF7, 72 hours
  IC50: > 100 µM
[5]; Homo sapiens, MRC5, 72 hours
  IC50: > 100 µM
[6]; Homo sapiens
  IC50: > 120 µM
[7]; Homo sapiens
  IC50: > 120 µM

## [NH2][Pt]([NH2])([Cl])([Cl])([O]C(=O)C(Cl)Cl)[O]C(=O)C(Cl)Cl [Mitaplatin, c,c,t-[Pt(NH3)2Cl2(O2CCHCl2)2]]
[1]; 72 hours
  IC50: 0.051 µM
[2]
  IC50: 2 µM
U2OS, human osteosarcoma
  IC50: 6.4 µM
[3]
  IC50: 14 µM
[4]; 72 hours
  IC50: 18 µM
[5]; 72 hours
  IC50: 18.3 µM
[6]
  IC50: 1.1 µM
[7]
  IC50: 3.34 µM
[8]; pH 6.0, 25° C.
  reduction potential, Pt(IV)/Pt(II) couple: −0.152 V vs Ag/AgCl
[8]; pH 7.4, irreversible cyclic voltammetric response, 25° C.
  reduction potential, Pt(IV)/Pt(II) couple: ~−0.173 V vs Ag/AgCl
[9]
  effect on mitochondria (JC-1 fluorescence): attacks the mitochondria
[10]
  effect on mitochondria (JC-1 fluorescence): had no effect
NTera-2 cells [11]
  mitochondrial membrane potential (Δψm), TMRM: significantly depolarizes; also recorded: reverses the hyperpolarization
[12]
  mitochondrial membrane potential (Δψm), TMRM: had no effect; also recorded: does not change the Δψm
NTera-2 cells [13]
  apoptosis inducing factor AIF location: located in the nucleus
  cytochrome c distribution: diffusely distributed in the cytoplasm
[14]
  cell killing in co-culture: selectively kills the cancer cells
[15]
  cell death in co-culture, LIVE/DEAD staining: selectively induced cell death in human cancer A549 cells, but not in normal MRC-5 cells
U2OS
  apoptosis (Annexin-V): Apoptosis was detected
HeLa
  apoptosis (Annexin-V): Apoptosis was detected
A549
  apoptosis (Annexin-V): Apoptosis was detected
Normal MRC-5 cells
  apoptosis (Annexin-V): did not show any detectable apoptosis

## CC(=O)[O][Pt]([NH2])([NH2])([Cl])([Cl])[O]C(C)=O [c,c,t-[Pt(NH3)2Cl2(O2CCH3)2]]
[7]; A2780/CP70 cells
  resistance of A2780/CP70 cells to the compound: much more resistant
[16]
  activity relative to mitaplatin: less active by several fold than mitaplatin

## cis-[Pt(NH3)2Cl2] [Cisplatin]
[1]; 72 hours
  IC50: 0.043 µM
[1]; 72 hours, listed as cis-DDP
  IC50: 0.05 µM
[2]
  IC50: 1.2 µM
U2OS, human osteosarcoma
  IC50: 3.9 µM
[3]
  IC50: 12 µM
[4]; 72 hours
  IC50: 13 µM
[5]; 72 hours
  IC50: 9.5 µM
[6]
  IC50: 0.56 µM
[7]
  IC50: 6 µM
[14]
  cell killing in co-culture: kills both the normal and cancer cells
U2OS
  apoptosis (Annexin-V): Apoptosis was detected
HeLa
  apoptosis (Annexin-V): Apoptosis was detected
A549
  apoptosis (Annexin-V): Apoptosis was detected
Normal MRC-5 cells
  apoptosis (Annexin-V): showed apoptosis
